Laboratory results reported in US9555039B2, “Piperidine derivatives and compositions for the inhibition of nicotinamide phosphoribosyltransferase (NAMPT)” (Forma TM, LLC., priority 2011, dated 2017).
Read-outs that look alike come from different tables or passages of the source.

Tests used:
[1] = biological target: T1, Recombinant His-tagged NAMPT (Homo sapiens, UniProt P43490); experiment: Biochemical inhibition assay: NAMPT enzymatic reaction, NMN quantified by mass spectrometry; settings: 33 nM NAMPT, 1 μM NAM, 100 μM PRPP, 30 minutes at room temperature, read-out: Biochem IC50
T1 construct: His; host or cells: E. coli
Description: Biochemical Inhibition Assay
NAMPT Protein Purification
Recombinant His-tagged NAMPT was produced in E. coli cells, purified over a Ni column, and further purified over a size-exclusion column by XTAL Biostructures.
The NAMPT Enzymatic Reaction
The NAMPT enzymatic reactions were carried out in Buffer A (50 mM Hepes pH 7.5, 50 mM NaCl, 5 mM MgCl2, and 1 mM THP) in 96-well V-bottom plates. The compound titrations were performed in a separate dilution plate by serially diluting the compounds in DMSO to make a 100× stock. […] The compound and enzyme mix was incubated for 15 minutes at room temperature, then 10 μL of 10× substrate and co-factors in Buffer A were added to the test well to make a final concentration of 1 μM NAM, 100 μM 5-Phospho-D-ribose 1-diphosphate (PRPP), and 2.5 mM Adenosine 5′-triphosphate (ATP). The reaction was allowed to proceed for 30 minutes at room temperature, then was quenched with the addition of 11 μL of a solution of formic acid and L-Cystathionine to make a final concentration of 1% formic acid and 10 μM L-Cystathionine. Background and signal strength was determined by addition (or non-addition) of a serial dilution of NMN to a pre-quenched enzyme and cofactor mix.
A mass spectrometry-based assay was used to measure the Nampt reaction product (NMN) and the internal control (L-Cystathionine). NMN and L-Cystathionine were detected using the services of Biocius Lifesciences with the RapidFire system. In short, the NMN and L-Cystathionine are bound to a graphitic carbon cartridge in 0.1% formic acid, eluted in 30% acetonitrile buffer, and injected into a Sciex 4000 mass spectrometer. The components of the sample were ionized with electrospray ionization and the positive ions were detected. […] The fragments are quantified and the analyzed by the following method.
First the NMN signal is normalized to the L-Cystathionine signal by dividing the NMN signal by the L-Cystathionine signal for each well. The signal from the background wells are averaged and subtracted from the test plates.
Wherein x denotes the average signal of the compound treated wells and y denotes the average signal of the DMSO treated wells.
IC50s are Determined Using Excel and this Formula.
Wherein X denotes the compound concentration 1, Y denotes the compound concentration 2, XX denotes the % inhibition at compound concentration 1 (X), and YY denotes the % inhibition at compound concentration 2 (Y).

[2] = tested on: A2780 cells; experiment: In-vitro cell proliferation assay (SRB, 72 hours); type: cell-based; settings: sulforhodamine B (SRB) assay
Description: In-Vitro Cell Proliferation Assay
After overnight incubation at 37° C. and 5% CO2, the compound titrations were performed in a separate dilution plate by serially diluting the compounds in DMSO to make a 1000× stock. The compounds were then further diluted to 10× final concentration in culture media, whereupon 20 μL of each dilution was added to the plated cells with controls (e.g. DMSO and blank) to make a final volume of 200 μL. The final DMSO concentration in each well was 0.1%. The plates were then incubated for 72 hours at 37° C. in a 5% CO2 incubator. The number of viable cells was then assessed using sulforhodamine B (SRB) assay. Cells were fixed at 4° C. for 1 hour with the addition of 50 μL 30% trichloroacetic acid (TCA) to make a final concentration of 6% TCA. The plates were washed four times with H2O and allowed to dry for at least 1 hour, whereupon 100 μL of a 4% SRB in 1% acetic acid solution was added to each well and incubated at room temperature for at least 30 minutes. The plates were then washed three times with 1% acetic acid, dried, and treated with 100 μL of 10 mM Tris-Base solution. The plates were then read in a microplate reader at an absorbance of 570 nm. Background was generated on a separate plate with media only.
Method for Determining % Inhibition
First, the signals from the background plate are averaged, then the background was subtracted from the test plates.
wherein x denotes the average signal of the compound-treated cells and y denotes the average signal of the DMSO-treated cells.
wherein X denotes the compound concentration 1, Y denotes the compound concentration 2, XX denotes the % inhibition at compound concentration 1 (X), and YY denotes the % inhibition at compound concentration 2 (Y).

T1 sequence (P43490 whole entry): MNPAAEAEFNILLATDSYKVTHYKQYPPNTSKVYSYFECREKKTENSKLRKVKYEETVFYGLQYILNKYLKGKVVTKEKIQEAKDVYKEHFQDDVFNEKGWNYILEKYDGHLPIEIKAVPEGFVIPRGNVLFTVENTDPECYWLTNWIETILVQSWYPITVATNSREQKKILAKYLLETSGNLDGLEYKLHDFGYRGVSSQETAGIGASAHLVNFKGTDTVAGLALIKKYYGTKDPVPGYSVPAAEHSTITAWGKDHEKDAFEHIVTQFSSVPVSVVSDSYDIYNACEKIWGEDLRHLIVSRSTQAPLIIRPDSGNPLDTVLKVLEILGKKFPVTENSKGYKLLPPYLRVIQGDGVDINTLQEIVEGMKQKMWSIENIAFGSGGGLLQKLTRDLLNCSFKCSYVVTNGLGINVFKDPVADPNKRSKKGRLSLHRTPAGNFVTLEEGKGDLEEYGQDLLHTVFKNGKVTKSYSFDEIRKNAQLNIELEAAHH

Compound | IC50 ([1]; 2.5 mM ATP) [nM] | IC50 ([2]; Homo sapiens) [nM] | IC50 ([1]; […] ATP) [nM] | IC50 [2] [nM]
O=C(NCCCCC1CCN(C(=O)c2csc(C(F)(F)F)n2)CC1)c1cc2ccncc2s1 [N-[4-(1-{[2-(trifluoromethyl)-1,3-thiazol-4-yl]carbonyl}piperidin-4-yl)butyl]thieno[2,3-c]pyridine-2-carboxamide] | 94 | 100 to 1000 |  | 
CC(C)c1ncoc1C(=O)N1CCC(CCCCNC(=O)c2cc3cnccc3[nH]2)CC1 [N-[4-(1-{[4-(propan-2-yl)-1,3-oxazol-5-yl]carbonyl}piperidin-4-yl)butyl]-1H-pyrrolo[3,2-c]pyridine-2-carboxamide] | 30.4 | 5.3 |  | 
COc1ccc(OC)c(C(=O)N2CCC(CCCCNC(=O)c3ccc4nccn4c3)CC2)c1 [N-(4-{1-[(2,5-dimethoxyphenyl)carbonyl]piperidin-4-yl}butyl)imidazo[1,2-a]pyridine-6-carboxamide] | 42.9 | 1.9 |  | 
O=C(NCCCCC1CCN(C(=O)c2ccc3[nH]ccc3c2)CC1)c1cc2cnccc2[nH]1 [N-(4-{1-[(1H-indol-5-yl)carbonyl]piperidin-4-yl}butyl)-1H-pyrrolo[3,2-c]pyridine-2-carboxamide] | 39.4 | 13.5 |  | 
O=C(NCCCCC1CCN(C(=O)c2ccc3[nH]ccc3c2)CC1)c1ccc2nccn2c1 [N-(4-{1-[(1H-indol-5-yl)carbonyl]piperidin-4-yl}butyl)imidazo[1,2-a]pyridine-6-carboxamide] | 19.5 | 18.5 |  | 
O=C(NCCCCC1CCN(C(=O)c2ccccc2OC(F)(F)F)CC1)c1cc2cnccc2[nH]1 [N-[4-(1-{[2-(trifluoromethoxy)phenyl]carbonyl}piperidin-4-yl)butyl]-1H-pyrrolo[3,2-c]pyridine-2-carboxamide] | 20.5 | 1.3 |  | 
O=C(NCCCCC1CCN(C(=O)c2cc(Cl)ccc2Cl)CC1)c1ccc2nccn2c1 [N-(4-{1-[(2,5-dichlorophenyl)carbonyl]piperidin-4-yl}butyl)imidazo[1,2-a]pyridine-6-carboxamide] | 10.2 | 5.5 |  | 
O=C(NCCCCC1CCN(S(=O)(=O)c2ccc(OC(F)(F)F)cc2)CC1)c1cc2cnccc2[nH]1 [N-[4-(1-{[4-(trifluoromethoxy)benzene]sulfonyl}piperidin-4-yl)butyl]-1H-pyrrolo[3,2-c]pyridine-2-carboxamide] |  |  | 76 | 27.2
O=C(NCCCCC1CCN(C(=O)c2ccc(-n3cccn3)cc2)CC1)c1cc2ccncc2s1 [N-[4-(1-{[4-(1H-pyrazol-1-yl)phenyl]carbonyl}piperidin-4-yl)butyl]thieno[2,3-c]pyridine-2-carboxamide] | 48.1 | 100 to 1000 |  | 
COc1ccc(C(=O)N2CCC(CCCCNC(=O)c3ccc4nccn4c3)CC2)cc1F [N-(4-{1-[(3-fluoro-4-methoxyphenyl)carbonyl]piperidin-4-yl}butyl)imidazo[1,2-a]pyridine-6-carboxamide] | 20.2 | 65.2 |  | 
O=C(NCCCCC1CCN(C(=O)c2ccc(F)cc2F)CC1)c1ccc2nccn2c1 [N-(4-{1-[(2,4-difluorophenyl)carbonyl]piperidin-4-yl}butyl)imidazo[1,2-a]pyridine-6-carboxamide] | 7.1 | 25.6 |  | 
COc1ccc(OC)c(C(=O)N2CCC(CCCCNC(=O)c3cc4ccncc4s3)CC2)c1 [N-(4-{1-[(2,5-dimethoxyphenyl)carbonyl]piperidin-4-yl}butyl)thieno[2,3-c]pyridine-2-carboxamide] | 5.5 | 2.9 |  | 
COc1ccc(C(=O)N2CCC(CCCCNC(=O)c3cc4cnccc4[nH]3)CC2)c(OC)c1 [N-(4-{1-[(2,4-dimethoxyphenyl)carbonyl]piperidin-4-yl}butyl)-1H-pyrrolo[3,2-c]pyridine-2-carboxamide] | 67.1 | 3.3 |  | 
O=C(NCCCCC1CCN(C(=O)c2ccc3nccn3c2)CC1)c1cc2cnccc2[nH]1 [N-{4-[1-({imidazo[1,2-a]pyridin-6-yl}carbonyl)piperidin-4-yl]butyl}-1H-pyrrolo[3,2-c]pyridine-2-carboxamide] | 7.7 | 13.8 |  | 
O=C(NCCCCC1CCN(C(=O)c2ccoc2)CC1)c1ccc2nccn2c1 [N-(4-{1-[(furan-3-yl)carbonyl]piperidin-4-yl}butyl)imidazo[1,2-a]pyridine-6-carboxamide] | 6.2 | 25.6 |  | 
O=C(NCCCCC1CCN(C(=O)c2cccc(F)c2F)CC1)c1cc2cnccc2[nH]1 [N-(4-{1-[(2,3-difluorophenyl)carbonyl]piperidin-4-yl}butyl)-1H-pyrrolo[3,2-c]pyridine-2-carboxamide] | 12.1 | 3.4 |  | 
COc1cccc(OC)c1C(=O)N1CCC(CCCCNC(=O)c2cc3cnccc3[nH]2)CC1 [N-(4-{1-[(2,6-dimethoxyphenyl)carbonyl]piperidin-4-yl}butyl)-1H-pyrrolo[3,2-c]pyridine-2-carboxamide] | 21.5 | 1.4 |  | 
O=C(NCCCCC1CCN(C(=O)c2csc(-c3cccnc3)n2)CC1)c1cc2ccncc2s1 [N-[4-(1-{[2-(pyridin-3-yl)-1,3-thiazol-4-yl]carbonyl}piperidin-4-yl)butyl]thieno[2,3-c]pyridine-2-carboxamide] | 70.6 | 85.3 |  | 
COc1cccc(C(=O)N2CCC(CCCCNC(=O)c3ccc4nccn4c3)CC2)c1OC [N-(4-{1-[(2,3-dimethoxyphenyl)carbonyl]piperidin-4-yl}butyl)imidazo[1,2-a]pyridine-6-carboxamide] | 19.1 | 2.9 |  | 
O=C(NCCCCC1CCN(C(=O)c2csc(-c3ccccc3)n2)CC1)c1cc2ccncc2s1 [N-(4-{1-[(2-phenyl-1,3-thiazol-4-yl)carbonyl]piperidin-4-yl}butyl)thieno[2,3-c]pyridine-2-carboxamide] | 13.1 | 76.2 |  | 
O=C(NCCCCC1CCN(C(=O)c2ccc(Cl)cc2)CC1)c1cc2cnccc2[nH]1 [N-(4-{1-[(4-chlorophenyl)carbonyl]piperidin-4-yl}butyl)-1H-pyrrolo[3,2-c]pyridine-2-carboxamide] | 114 | 65.7 |  | 
O=C(NCCCCC1CCN(C(=O)c2ccc(Cl)c(Cl)c2)CC1)c1cc2ccncc2s1 [N-(4-{1-[(3,4-dichlorophenyl)carbonyl]piperidin-4-yl}butyl)thieno[2,3-c]pyridine-2-carboxamide] | 34.5 | 100 to 1000 |  | 
O=C(NCCCCC1CCN(C(=O)c2cc3cc(F)ccc3[nH]2)CC1)c1cc2ccncc2s1 [N-(4-{1-[(5-fluoro-1H-indol-2-yl)carbonyl]piperidin-4-yl}butyl)thieno[2,3-c]pyridine-2-carboxamide] | 30.4 | 1000 to 10000 |  | 
Cc1c(F)cccc1C(=O)N1CCC(CCCCNC(=O)c2cc3cnccc3[nH]2)CC1 [N-(4-{1-[(3-fluoro-2-methylphenyl)carbonyl]piperidin-4-yl}butyl)-1H-pyrrolo[3,2-c]pyridine-2-carboxamide] | 20.5 | 3.1 |  | 
CCOc1ncccc1C(=O)N1CCC(CCCCNC(=O)c2cc3cnccc3[nH]2)CC1 [N-(4-{1-[(2-ethoxypyridin-3-yl)carbonyl]piperidin-4-yl}butyl)-1H-pyrrolo[3,2-c]pyridine-2-carboxamide] | 20.6 | 0.6 |  | 
